Data from the NIST ThermoML archive (doi:10.1016/j.jct.2016.04.023).
± gives the expanded uncertainty stated by the source.

Test: Boiling temperature at pressure P
Settings: Liquid, DSC

Row | Boiling temperature at pressure P (3.47 kPa) [°C] | SMILES | other results
1 | 201.40 ± 1.9 | CCCC(=O)OCC(COC(=O)CCC)OC(=O)CCC [1,2,3-propanetriyl tributanoate] | –
2 | 225.89 ± 1.8 | CCCCCCCCCCCCCCCCCCO [1-octadecanol] | –
3 | 211.90 ± 1.9 | CCCCCCCC(=O)OCC(O)CO (stereo unspecified) [2,3-dihydroxypropyl octanoate] | –
4 | 186.13 ± 1.7 | OCC(O)CO [glycerol] | –
5 | 196.81 ± 1.9 | CCCCCCCCCCCCCCCCCC [octadecane] | –
6 | 144.04 ± 1.9 | CCCCCCCC(=O)O [octanoic acid] | –

Row | SMILES | Boiling temperature at pressure P (3.47 kPa) [°C] | other results
7 | CCCCCCCCCCCCCCCC [hexadecane] | 170.91 ± 2.5 | Boiling temperature at pressure P (10.37 kPa): 200.90 ± 1.7 °C; Boiling temperature at pressure P (15.17 kPa): 213.66 ± 1.6 °C; Boiling temperature at pressure P (18.66 kPa): 220.5 ± 2.6 °C; Boiling temperature at pressure P (22.39 kPa): 223.27 ± 2.3 °C
